For 13 compounds, GI50 results are on record in US20250388575A1, “HETEROBIFUNCTIONAL COMPOUNDS AND METHODS OF TREATING DISEASE” (Halda Therapeutics OpCo, Inc., priority 2022, published 2025).

The structures appear in SMILES notation. Where two headings read alike, the source gives them in different places.

Test [1] deals with T-Rex 293 cell line SC cells having increased expression of progesterone receptor isoform B protein. The test is described as follows: Cellular growth inhibition, T-Rex 293 SC cells with increased progesterone receptor isoform B expression (doxycycline), CellTiter-Glo. It is filed as cell-based. As to conditions: progesterone receptor isoform B induced with 10 ng/mL doxycycline, 72 hours. The protocol:
(§1) The following types of cells were prepared for this experiment: (i) a T-Rex 293 cell line having increased expression of progesterone receptor isoform B protein due to exposure to doxycycline and (ii) a T-Rex 293 cell line lacking increased expression of progesterone receptor isoform B protein. Ability of the test compounds to inhibit proliferation of the foregoing cell types was evaluated according to the procedures set forth below.
(§2) The doxycycline-inducible progesterone receptor isoform B protein expressing cell line was established using the following protocol: T-Rex 293 cells were purchased from Invitrogen (Cat #R71007) and transfected using Lipofectamine 2000 with the wild-type progesterone receptor B protein sequence cloned into the pcDNA4/TO vector. Transfected cells were selected using 400 μg/mL Zeocin (Invitrogen Cat #R25001). Following selection, single clones were raised and maintained in Dulbecco's Modified Eagle Medium (DMEM) supplemented with 10% w/w Tetracycline-free fetal bovine serum (FBS) and 250 μg/mL Zeocin. Clones were analyzed for expression of progesterone receptor isoform B protein in the presence and absence of 10 ng/ml doxycycline (Sigma Cat #D9891), and a single doxycycline-inducible clone (hereinafter “SC”) was selected for use in downstream assays.
(§3) The SC cells were seeded on poly-D-lysine coated, black clear-bottom 384-well plates at 2500/well, in 25 μL Phenol Red Free Dulbecco's Modified Eagle Medium (DMEM) supplemented with 10% w/w charcoal-dextran treated fetal bovine serum (FBS) and 1% w/w pen-strep, with or without 10 ng/mL doxycycline. Pen-Strep is a commercially available mixture of penicillin G and streptomycin, which is used in mammalian cell culture media to prevent bacterial contamination. Phenol Red Free Dulbecco's Modified Eagle Medium (DMEM) supplemented with 10% w/w charcoal-dextran treated fetal bovine serum (FBS) and 1% w/w pen-strep, with or without 10 ng/mL doxycycline is herein referred to as Treatment Medium. Following seeding of cells in the plates, the plates were spun at 300×g for 30 seconds, then equilibrated to room temperature for 30 minutes, and then deposited in a humidified tissue culture incubator maintained at 37° C. with 5% CO2.
(§4) At 24 hours after seeding of the cells, dilutions of test compound were prepared in DMSO and dissolved in Treatment Medium, to achieve a final DMSO concentration of 0.5% w/w, thereby providing the Test Compound Solution. A 25 μL aliquot of the Test Compound Solution was added to cells in the well plates. An equal volume of a solution containing DMSO and Treatment Medium was used as a negative control. Following treatment of cells with Test Compound Solution or said equal volume of a solution containing DMSO and Treatment Medium, the plates were spun at 300×g for 30 seconds, and then left in an incubator for 72 hours.
(§5) At the end of the treatment duration, cell viability was quantified with CellTiter-Glo 2.0 reagent (Promega Cat #G9243). For this purpose, plates were equilibrated to room temperature for 30 minutes, and then 25 μL of CellTiter-Glo 2.0 reagent was added to cells in the plate wells. Plates were then agitated on a shaker for two minutes at 500 rpm and subsequently incubated at room temperature for 10 minutes. Following incubation, the plates were spun at 3000×g for 30 seconds, then sealed with an optical adhesive cover, and luminescence readings were measured with an EnVision Plate Reader (Perkin Elmer).
(§6) Data was normalized using zero luminescence for baseline. A four-parameter non-linear regression curve fit was applied to dose-response data in GraphPad Prism data analysis software to determine the half-maximal growth inhibitory concentration (GI50) for each test compound.

Test [2] has as its system T-Rex 293 cell line SC3 cells lacking increased expression of androgen receptor protein. Put plainly: Cellular growth inhibition, T-Rex 293 SC3 cells lacking increased androgen receptor expression (no doxycycline), CellTiter-Glo. The format is cell-based. As to conditions: T-Rex 293 SC3 cells lacking increased androgen receptor expression (not exposed to doxycycline), 72 hours, CellTiter-Glo; read-out: GI50. Put shortly:
(§7)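 SC3, a T-Rex 293 clone with doxycycline-inducible wild-type androgen receptor, was seeded in phenol red-free DMEM with 10% charcoal-dextran FBS, with or without 10 ng/mL doxycycline. Compound added at 24 h (0.5% DMSO) for 72 h at 37° C. CellTiter-Glo 2.0 luminescence; GI50 from four-parameter fit.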
For orientation: ATP-based viability assays read luminescence as a measure of living cells.

Test [3] concerns T-Rex 293 cell line SC cells lacking increased expression of progesterone receptor isoform B protein. The test is described as follows: Cellular growth inhibition, T-Rex 293 SC cells lacking increased progesterone receptor isoform B expression (no doxycycline), CellTiter-Glo. It is filed as cell-based. The note with it: T-Rex 293 SC cells not exposed to doxycycline, 72 hours. Here is the method:
as §1, §2, §3, §4, §5, §6

The next test concerns T47D cells. Put plainly: Cellular growth inhibition assay for T47D cells, CellTiter-Glo. It is filed as cell-based, human. As to conditions: 72 hours treatment, CellTiter-Glo 2.0. Put shortly: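 Luminescence from CellTiter-Glo 2.0 after 72 h of compound exposure gives the viability signal. Cells grew in insulin-supplemented (0.2 units/mL) DMEM with 10% FBS and were treated one day after seeding at 0.5% DMSO. GI50 values come from four-parameter nonlinear regression.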

The next test has as its system VCaP cells. Put plainly: Cellular growth inhibition assay for VCaP cells, CellTiter-Glo. The format is cell-based, human. The note with it: VCaP cells, 72 hours, CellTiter-Glo, read-out: GI50. Put shortly: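 GI50 values come from four-parameter curve fits of luminescence data normalized to a zero baseline. Compound, in medium with 0.5% DMSO, was added one day after plating and left for 72 h before CellTiter-Glo 2.0 addition.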

The subject of test [4] is T-Rex 293 cell line SC3 cells having increased expression of androgen receptor protein. Put plainly: Cellular growth inhibition, T-Rex 293 SC3 cells with increased androgen receptor expression (doxycycline), CellTiter-Glo. It is filed as cell-based. The note with it: T-Rex 293 SC3 cells with increased androgen receptor expression (exposed to 10 ng/mL doxycycline), 72 hours, CellTiter-Glo; read-out: GI50. Put shortly: as §7

Broadly, the GI50 is the concentration that inhibits growth by half. In the case of `CCS(=O)(=O)Nc1ccc(Oc2cccc(OCCOCCOCCOC3CCN(c4ccc(C(=O)N[C@H]5CC[C@H](Oc6ccc(C#N)c(Cl)c6)CC5)nn4)CC3)c2)c(-c2cn(C)c(=O)c3[nH]ccc23)c1` [I-2, N-[4-(3-chloro-4-cyano-phenoxy)cyclohexyl]-6-[4-[2-[2-[2-[3-[4-(ethylsulfonylamino)-2-(6-methyl-7-oxo-1H-pyrrolo[2,3-c]pyridin-4-yl)phenoxy]phenoxy]ethoxy]ethoxy]ethoxy]-1-piperidyl]pyridazine-3-carboxamide], the GI50 in test [1] is under 500 nM; in test [2] it was 500 to 1500 nM; in test [3], under 500 nM; in the test on T47D cells (Homo sapiens), under 500 nM; with VCaP cells (Homo sapiens) it was under 500 nM; in test [4], under 500 nM.

On to `CCS(=O)(=O)Nc1ccc(Oc2cccc(N3CC(OC4CCN(c5ccc(C(=O)N[C@H]6CC[C@H](Oc7ccc(C#N)c(Cl)c7)CC6)nn5)CC4)C3)c2F)c(-c2cn(C)c(=O)c3[nH]ccc23)c1` [I-25], for which the GI50 in test [1] was under 500 nM; in test [2], over 3000 nM; in test [3], under 500 nM; with T47D cells (Homo sapiens), under 500 nM; in the test on VCaP cells (Homo sapiens), under 500 nM; in test [4], under 500 nM.

`CCS(=O)(=O)c1ccc(Oc2cccc(OCCN3CCN(c4ccc(C(=O)NC5CCC(Oc6ccc(C#N)c(Cl)c6)CC5)nn4)CC3)c2F)c(-c2cn(C)c(=O)c3[nH]ccc23)c1` (centres unmarked) [I-40, N-[4-(3-chloro-4-cyano-phenoxy)cyclohexyl]-6-[4-[2-[3-[4-ethylsulfonyl-2-(6-methyl-7-oxo-1H-pyrrolo[2,3-c]pyridin-4-yl)phenoxy]-2-fluoro-phenoxy]ethyl]piperazin-1-yl]pyridazine-3-carboxamide]: the GI50 (in test [1]; in test [2]; in test [3]; in the test on T47D cells (Homo sapiens); with VCaP cells (Homo sapiens); in test [4]) was under 500 nM each time.

Turning to `CCS(=O)(=O)c1ccc(Oc2cccc(CCCCN3CC4(C3)CN(c3ccc(C(=O)N[C@H]5CC[C@H](Oc6ccc(C#N)c(Cl)c6)CC5)nn3)C4)c2F)c(-c2cn(C)c(=O)c3[nH]ccc23)c1` [I-47], the GI50 (in test [1]; in test [2]; in test [3]; in the test with T47D cells (Homo sapiens); with VCaP cells (Homo sapiens); in test [4]) was under 500 nM in each case.

`Cn1cc(-c2cc(C(C)(C)O)ccc2Oc2ccc(OCC3CCN(c4ccc(C(=O)N[C@H]5CC[C@H](Oc6ccc(C#N)c(Cl)c6)CC5)nn4)CC3)cc2)c2cc[nH]c2c1=O` [I-96]: the GI50 (in test [1]; in test [2]; in test [3]; in the test on T47D cells; in the test with VCaP cells; in test [4]) was under 500 nM each time.

As to `Cn1cc(-c2cc(C(C)(C)O)ccc2Oc2ccc(OCCN3CCN(c4ccc(C(=O)N[C@H]5CC[C@H](Oc6ccc(C#N)c(Cl)c6)CC5)nn4)CC3)cc2)c2cc[nH]c2c1=O` [I-97], the GI50 (in test [1]; in test [2]; in test [3]; in the test with T47D cells (Homo sapiens); in the test with VCaP cells (Homo sapiens); in test [4]) was under 500 nM throughout.

`CN(CCOc1ccc(Oc2ccc(C(C)(C)O)cc2-c2cn(C)c(=O)c3[nH]ccc23)cc1)c1ccc(C(=O)N[C@H]2CC[C@H](Oc3ccc(C#N)c(Cl)c3)CC2)nn1` [I-98]: the GI50 (in test [1]; in test [2]; in test [3]; in the test on VCaP cells; in test [4]) was under 500 nM each time.

For the compound `CN(CCCOc1ccc(Oc2ccc(C(C)(C)O)cc2-c2cn(C)c(=O)c3[nH]ccc23)cc1)c1ccc(C(=O)N[C@H]2CC[C@H](Oc3ccc(C#N)c(Cl)c3)CC2)nn1` [I-99], the GI50 in test [1] is under 500 nM; in test [2] it was under 500 nM; in test [3] it was 500 to 1500 nM; in the test on T47D cells it was 500 to 1500 nM; in the test on VCaP cells it was under 500 nM; in test [4], under 500 nM.

On to `CN(CCc1ccc(Oc2ccc(C(C)(C)O)cc2-c2cn(C)c(=O)c3[nH]ccc23)cc1)c1ccc(C(=O)NC2CCC(Oc3ccc(C#N)c(Cl)c3)CC2)nn1` (centres unmarked) [I-100, N-[4-(3-chloro-4-cyano-phenoxy)cyclohexyl]-6-[2-[4-[4-(1-hydroxy-1-methyl-ethyl)-2-(6-methyl-7-oxo-1H-pyrrolo[2,3-c]pyridin-4-yl)phenoxy]phenyl]ethyl-methyl-amino]pyridazine-3-carboxamide], for which the GI50 (in test [1]; in test [2]; in test [3]; in the test with T47D cells (Homo sapiens); with VCaP cells (Homo sapiens); in test [4]) was under 500 nM in each case.

In the case of `Cn1cc(-c2cc(C(C)(C)O)ccc2Oc2ccc(CC3CCN(c4ccc(C(=O)N[C@H]5CC[C@H](Oc6ccc(C#N)c(Cl)c6)CC5)nn4)CC3)cc2)c2cc[nH]c2c1=O` [I-101], the GI50 was under 500 nM in test [1]; 500 to 1500 nM in test [2]; under 500 nM in test [3]; under 500 nM in the test on T47D cells (Homo sapiens); under 500 nM with VCaP cells (Homo sapiens); under 500 nM in test [4].

For the compound `Cn1cc(-c2cc(C(C)(C)O)ccc2Oc2ccc(CCOC3CCN(c4ccc(C(=O)N[C@H]5CC[C@H](Oc6ccc(C#N)c(Cl)c6)CC5)nn4)CC3)cc2)c2cc[nH]c2c1=O` [I-103], the GI50 (in test [1]; in test [2]; in test [3]; in the test with T47D cells (Homo sapiens); in the test with VCaP cells (Homo sapiens); in test [4]) was under 500 nM each time.

Regarding `CN(c1ccc(Oc2ccc(C(C)(C)O)cc2-c2cn(C)c(=O)c3[nH]ccc23)cc1)C1CN(c2ccc(C(=O)N[C@H]3CC[C@H](Oc4ccc(C#N)c(Cl)c4)CC3)nn2)C1` [I-138], the GI50 (in test [1]; in test [2]; in test [3]; in the test on T47D cells (Homo sapiens); with VCaP cells (Homo sapiens); in test [4]) was under 500 nM each time.

As to `Cn1cc(-c2cc(C(C)(C)O)ccc2Oc2ccc(N3CCN(c4ccc(C(=O)N[C@H]5CC[C@H](Oc6ccc(C#N)c(Cl)c6)CC5)nn4)CC3)cc2)c2cc[nH]c2c1=O` [I-139], the GI50 (in test [1]; in test [2]; in test [3]; with T47D cells; with VCaP cells; in test [4]) was under 500 nM each time.
